In data set [1] the test system is aortic wall protein cross-linking in diabetic rats. The conditions noted are these: cited from earlier work.
For data set [2], the system named is immunoglobulin trapping in the kidney. Particulars: in vivo; cited from earlier work.
In another data set the test system is red blood cells. Particulars: in vivo; cited from earlier work.
The subject of data set [3] is fixed protein (gelatin, i.e., collagen) surface. The data set is described as follows: Surface browning experiment on gelatin/paper disks in glucose-6-phosphate. Particulars: 100 mM glucose-6-phosphate, one week at 50° C., final concentration of 0.04% chlorhexidine (Peridex). The protocol:
To further study the ability of inhibitors of nonenzymatic browning to prevent the discoloration of protein on a surface, such as that which occurs on the tooth surface, the following surface browning experiment is performed. As a substitute for a pellicle-covered tooth surface, unexposed and developed photographic paper is used to provide a fixed protein (gelatin, i.e., collagen) surface on a paper backing. […] Glucose-6-phosphate is a sugar capable of participating in nonenzymatic browning at a more rapid rate than glucose. In addition to the glucose-6-phosphate, chlorhexidine and/or a compound of Formula I are included. After incubation, the gelatin/paper disks are rinsed with water, observed for brown color, and photographed.

Data set [4] addresses T1, cross-linking of glycated bovine serum albumin (AGE-BSA) to the rat tail tendon collagen (Bos taurus, UniProt P02769).
T1 construct: glycated bovine serum albumin (AGE-BSA); from tissue; host or cells: collagen from rat tail tendon; BSA from bovine serum, glycated in house
Briefly: Inhibition of cross-linking of glycated BSA (AGE-BSA) to rat tail tendon collagen coated 96-well plate (ELISA). Format: biochemical. How it is done:
The cross-linked AGE-BSA to the tail tendon coated plate was then quantitated by the polyclonal antibody raised against AGE-RNase.
The % inhibition of each test compound was calculated as follows.
(In general: In an ELISA, binding on a coated surface is turned into a signal by an enzyme label.)

Data set [5] concerns the target T2, AGE-BSA previously crosslinked to the collagen (Bos taurus, UniProt P02769).
T2 construct: Type V BSA (bovine serum albumin); purchased Calbiochem (BSA Type V); Collaborative Biomedical Products (Biocoat rat tail collagen type I plates)
The data set is described as follows: Sandwich enzyme immunoassay for breaking of AGE moieties from AGE-BSA crosslinked to collagen (AGE breaker assay). Format: biochemical, bovine; rat. Particulars: AGE breaking, 16 hours 37° C. The protocol:
The present invention also involves a novel sandwich enzyme immunoassay used to ascertain the ability of test compounds to “break” or reverse already formed advanced glycosylation endproducts by detecting the breaking of AGE (Advanced glycosylation endproduct) moieties from AGE-crosslinked protein. This assay comprises:
a) incubation of AGE-modified bovine serum albumin (AGE-BSA) on collagen-coated wells of microtiter plates for a period of 2-6 hours at a temperature of 37° C.;
b) washing of the wells with PBS-Tween;
c) application of the test compounds to the washed wells of step b;
d) incubation of the test compounds applied to the washed wells for an additional 12-24 hours at a temperature of about 37° C.; and
e) detection of the AGE-breaking using an antibody raised against AGE-ribonuclease or cross-link breaking with an antibody against BSA.
In order to ascertain the ability of the compounds of the instant invention to “break” or reverse already formed advanced glycosylation endproducts, a novel sandwich enzyme immunoassay was developed which detects breaking of AGE (Advanced glycosylation endproduct) moieties from AGE-crosslinked protein. The assay utilizes collagen-coated 96 will microtiter plates that are obtained commercially. AGE-modified protein (AGE-BSA) is incubated on the collagen-coated wells for four hours, is washed off the wells with PBS-Tween and the test compounds are added. Following an incubation period of 16 hours (37° C.) AGE-breaking is detected using an antibody raised against AGE-ribonuclease or with an antibody against BSA. […] Details of the assay are as follows:
1. AGE-BSA stock solutions were prepared as follows. Sodium phosphate buffer (0.4M) was prepared by dissolving 6 grams of monobasic sodium phosphate in 100 ml of distilled water, 7 grams of dibasic sodium phosphate (0.4M) in 100 ml of distilled water and adjusting the pH of the dibasic solution to 7.4 with the monobasic solution. Sodium azide (0.02 grams) was added per 100 ml volume to inhibit bacterial growth. The BSA solution was prepared as follows: 400 mg of Type V BSA (bovine serum albumin) was added for each ml of sodium phosphate buffer (above). A 400 mM glucose solution was prepared by dissolving […] of dextrose in 100 ml of sodium phosphate buffer (above). The BSA and glucose solutions were mixed 1:1 and incubated at 37° C. for 12 weeks. The pH of the incubation mixture was monitored weekly and adjusted to pH 7.4 if necessary. After 12 weeks, the AGE-BSA solution was dialyzed against PBS for 48 hours with four buffer changes, each at a 1:500 ratio of solution to dialysis buffer. Protein concentration was determined by the micro-Lowry method. The AGE-BSA stock solution was aliquoted and stored at −20° C.
2. Working solutions for crosslinking and breaking studies were prepared as follows. Test compounds were dissolved in PBS and the pH was adjusted to pH 7.4 if necessary. AGE-BSA stock solution was diluted in PBS to measure maximum crosslinking and in the inhibitor solution for testing inhibitory activity of compounds. The concentration of AGE-BSA necessary to achieve the optimum sensitivity was determined by initial titration of each lot of AGE-BSA.
3. Wash buffer (“PBS-Tween”) was prepared as follows. PBS was prepared by dissolving the following salts in one liter of distilled water: NaCl, 8 grams; KCl, 0.2 gram, KH2PO4. […] Tween-20 was added to a final concentration of 0.05% (vol/vol).
4. Substrates for detection of secondary antibody binding were prepared by diluting the HRP substrate buffer 1:10 in distilled water and mixing with ABTS chromogen 1:50 just prior to use.
1. Biocoat plates were blocked With 300 μl of “Superbloc”. Plates were blocked for one hour at room temperature and were washed with PBS-Tween three times with the Dynatech platewasher before addition of test reagents.
2. Each experiment was set up in the following manner.

Each structure is given as a SMILES string. pIC50: −log10 of the molar value. Like-named read-outs stand apart in the source and are kept apart here.

T2 sequence (P02769 25-607): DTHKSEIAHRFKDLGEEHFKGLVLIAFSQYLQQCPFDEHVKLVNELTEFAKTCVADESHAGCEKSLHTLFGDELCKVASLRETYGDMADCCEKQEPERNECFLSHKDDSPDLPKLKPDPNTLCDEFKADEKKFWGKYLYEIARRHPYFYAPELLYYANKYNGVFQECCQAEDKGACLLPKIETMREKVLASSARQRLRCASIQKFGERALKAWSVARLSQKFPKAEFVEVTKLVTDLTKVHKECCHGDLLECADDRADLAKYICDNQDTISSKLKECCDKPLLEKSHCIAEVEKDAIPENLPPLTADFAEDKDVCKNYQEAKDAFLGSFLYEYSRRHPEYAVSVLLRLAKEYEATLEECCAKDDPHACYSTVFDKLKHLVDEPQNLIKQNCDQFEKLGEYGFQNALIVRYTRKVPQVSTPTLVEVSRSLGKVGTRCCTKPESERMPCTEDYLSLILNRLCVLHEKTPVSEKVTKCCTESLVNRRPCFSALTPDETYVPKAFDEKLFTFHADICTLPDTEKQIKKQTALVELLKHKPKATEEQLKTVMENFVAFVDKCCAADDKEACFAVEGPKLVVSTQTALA
T2 sequence (P02454 152-1207 partner limits assumed): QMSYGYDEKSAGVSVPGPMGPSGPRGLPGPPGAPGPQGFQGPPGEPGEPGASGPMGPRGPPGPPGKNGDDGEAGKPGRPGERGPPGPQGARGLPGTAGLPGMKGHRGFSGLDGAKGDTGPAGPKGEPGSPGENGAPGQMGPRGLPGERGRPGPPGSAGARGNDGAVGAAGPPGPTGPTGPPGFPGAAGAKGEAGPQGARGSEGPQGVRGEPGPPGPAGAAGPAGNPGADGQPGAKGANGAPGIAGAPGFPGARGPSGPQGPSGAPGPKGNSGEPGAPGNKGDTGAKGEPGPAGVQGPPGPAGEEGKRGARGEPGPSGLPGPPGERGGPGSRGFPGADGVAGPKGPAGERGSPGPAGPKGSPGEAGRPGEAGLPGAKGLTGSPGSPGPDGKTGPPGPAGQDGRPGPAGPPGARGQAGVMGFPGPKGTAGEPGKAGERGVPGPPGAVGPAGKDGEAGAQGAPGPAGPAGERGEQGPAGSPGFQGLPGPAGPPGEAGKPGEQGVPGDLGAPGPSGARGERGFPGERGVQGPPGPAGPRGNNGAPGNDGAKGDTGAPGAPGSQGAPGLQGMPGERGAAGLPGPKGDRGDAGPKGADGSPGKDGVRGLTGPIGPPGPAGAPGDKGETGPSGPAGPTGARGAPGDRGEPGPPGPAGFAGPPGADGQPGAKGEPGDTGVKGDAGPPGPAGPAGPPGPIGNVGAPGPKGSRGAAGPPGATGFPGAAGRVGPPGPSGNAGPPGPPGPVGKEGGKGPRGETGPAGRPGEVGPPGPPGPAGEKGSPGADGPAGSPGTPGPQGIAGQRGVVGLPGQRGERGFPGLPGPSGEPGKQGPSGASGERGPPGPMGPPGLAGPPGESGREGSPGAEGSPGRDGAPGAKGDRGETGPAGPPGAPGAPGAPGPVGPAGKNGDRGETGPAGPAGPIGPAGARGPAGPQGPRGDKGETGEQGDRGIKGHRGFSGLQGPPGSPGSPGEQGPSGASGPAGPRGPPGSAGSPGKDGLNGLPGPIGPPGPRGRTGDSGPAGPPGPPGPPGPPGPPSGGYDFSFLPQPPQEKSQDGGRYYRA
T2 sequence (P02466 86-1125 partner limits assumed): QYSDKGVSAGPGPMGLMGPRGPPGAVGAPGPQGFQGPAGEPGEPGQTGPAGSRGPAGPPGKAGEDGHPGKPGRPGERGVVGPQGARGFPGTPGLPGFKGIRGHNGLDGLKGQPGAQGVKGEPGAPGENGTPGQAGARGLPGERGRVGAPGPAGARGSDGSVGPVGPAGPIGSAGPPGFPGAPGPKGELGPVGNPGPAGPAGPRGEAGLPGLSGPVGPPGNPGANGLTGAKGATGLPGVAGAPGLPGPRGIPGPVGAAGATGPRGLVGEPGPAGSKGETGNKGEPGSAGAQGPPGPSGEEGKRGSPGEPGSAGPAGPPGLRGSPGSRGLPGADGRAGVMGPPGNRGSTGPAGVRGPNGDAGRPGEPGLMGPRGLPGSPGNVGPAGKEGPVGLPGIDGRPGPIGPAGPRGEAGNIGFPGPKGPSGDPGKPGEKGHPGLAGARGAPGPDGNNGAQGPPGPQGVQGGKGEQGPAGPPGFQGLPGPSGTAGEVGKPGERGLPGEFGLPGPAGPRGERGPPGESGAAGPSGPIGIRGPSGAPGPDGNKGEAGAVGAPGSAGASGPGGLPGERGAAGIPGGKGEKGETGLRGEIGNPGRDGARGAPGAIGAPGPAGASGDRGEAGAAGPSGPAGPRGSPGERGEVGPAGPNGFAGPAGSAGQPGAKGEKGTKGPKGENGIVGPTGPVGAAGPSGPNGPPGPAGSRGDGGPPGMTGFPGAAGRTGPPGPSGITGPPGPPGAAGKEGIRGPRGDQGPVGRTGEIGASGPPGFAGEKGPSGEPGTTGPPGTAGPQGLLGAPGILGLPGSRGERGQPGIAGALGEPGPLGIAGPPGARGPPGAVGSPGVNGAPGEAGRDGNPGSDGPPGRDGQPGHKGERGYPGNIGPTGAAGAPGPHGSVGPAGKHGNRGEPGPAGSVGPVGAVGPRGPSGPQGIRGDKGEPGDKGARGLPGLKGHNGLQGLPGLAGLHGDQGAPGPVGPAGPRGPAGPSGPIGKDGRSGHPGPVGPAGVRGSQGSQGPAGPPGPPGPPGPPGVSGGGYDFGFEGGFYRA
T1 sequence (P02769 25-607): as the sequence (P02769 25-607) above

`N=C(N)NN` [aminoguanidine]: the “aortic wall protein cross-linking” value in data set [1] is recorded as “diminishes aortic wall protein cross-linking”. Besides, the “immunoglobulin trapping in the kidney” value in data set [2] was “reduction of immunoglobulin trapping in the kidney”. Also, in the data set on red blood cells, the “diabetes-induced changes in the deformability of red blood cells” value is on record as “has been shown to prevent it in vivo”.

In the case of `[H]/N=C(\N/C(=N/[H])NCCCCCCNC(=N)NC(=N)Nc1ccc(Cl)cc1)Nc1ccc(Cl)cc1` [chlorhexidine], in data set [3], the “brown color of gelatin/paper disks” value is given as “significant browning”.

For orientation: pIC50 means −log10 of the IC50, conventionally taken in molar units. The IC50 is the concentration that gives 50% inhibition. As usually defined, the melting point is the temperature of the solid-liquid transition. On to `Cc1csc[n+]1CC(=O)c1ccccc1.[Br-]` [3-(2-phenyl-2-oxoethyl)-4-methylthiazolium bromide], for which the melting point is 218 to 220 °C (dec.). The negative logarithm of the IC50 (pIC50) in data set [4] is 1.99. For the same compound, the IC50 in data set [5] (detection with anti-AGE-RNase antibody, read-out: IC50 (mM) Anti-AGE) is 0.23 mM. Besides, in data set [5] (detection with anti-BSA antibody, read-out: IC50 (mM) Anti-BSA), the IC50 is 0.3 mM.

Source of the values: patent USRE38330E1, “Preventing and reversing advanced glycosylation endproducts” (Alteon Inc., priority 1995, dated 2003).
